This note sets out measurements from patent publication US20080176857A1, “4-Piperazinnylthieno[2,3-d]Pyrimidine Compounds as Platelet Aggregation Inhibitors” (priority 2005, published 2008).

Broadly, the inhibition is the change of the read-out against control, counted positive when it falls. High values mean strong suppression, low ones little suppression. Usually IC50 stands for the point on the concentration scale where inhibition reaches its midpoint. A low value points to higher potency. One may read the Ki as a dissociation constant, usually derived from enzyme kinetics or from competition with a known ligand. The low end stands for tighter binding, the high end for weaker binding.

The test deals with P2Y12 receptor (Homo sapiens, UniProt Q9H244). As to the kind of experiment: [33P]2MeS-ADP binding to washed human platelet membranes (Assay 1). Also noted: the P2Y12 receptor, which is found on the surface of platelets; tissue Interstate Blood bank, Memphis, Tenn; host or cells: washed human platelets from platelet rich plasma. The settings on record: for inhibition at 10 µM: at highest concentration tested. On the procedure: 1. Inhibition of [^33P]2MeS-ADP Binding to Washed Human Platelet Membranes. The ability of a test compound to bind to the P2Y12 receptor was evaluated in a platelet membrane binding assay. In this competitive binding assay, the test compound competed against a radiolabelled agonist for binding to the P2Y12 receptor, which is found on the surface of platelets. Inhibition of binding of the labeled material was measured and correlated to the amount and potency of the test compound. Data from this assay are presented in Table F. Platelet rich plasma (“PRP”) was obtained from the Interstate Blood bank, Memphis, Tenn. Platelet rich plasma was prepared from blood units collected in ACD ((prepared by (1) combining: 2.5 g sodium citrate (Sigma S-4641); 1.5 g citric acid (Sigma C-0706); and, 2.0 g dextrose (Sigma G-7528); (2) bringing pH to 4.5; and (3) adding water to bring volume to 100 mL) and using the light spin protocol; this protocol involves centrifugation at room temperature for approximately 20 minutes at speeds up to 160×g. Platelet rich plasma is supplied in units of approximately 200 ml. Each unit is distributed into four 50 mL polypropylene conical tubes for centrifugation. Blood from each donor is maintained separately.
The 50 mL tubes were centrifuged for 15 minutes at 1100 rpm in Sorvall RT6000D (with H1000B rotor). Internal centrifuge temperature was maintained at approximately room temperature (22-24° C.). This spin pelleted cellular components remaining from the PRP preparation.
The supernatant was decanted into fresh 50 mL tubes. To avoid carry over of cellular components following the room temperature centrifugation, approximately 5 mL of PRP was left in the tube and discarded. The tubes were capped and inverted 2-3 times and allowed to stand at room temperature for at least 15 minutes following inversion.
Optionally, a Coulter Counter may be used to count platelets from the resting samples during the resting phase. Normal human platelet counts are expected to range from 200,000 to 400,000 per μL of PRP supernatant.
The 50 mL tubes containing PRP supernatant were centrifuged for 15 minutes at 2300-2400 rpm to loosely pellet the platelets. The supernatant from this spin was decanted immediately into a clean cell culture bottle (Corning bottle) and saved in case further centrifugation was needed. The pellet of each tube was resuspended in 2-4 mL of Wash buffer (pH 6.5) (1 L prepared new daily—134 mM NaCl (Sigma S-5150); 3 mM KCl (Sigma P-9333); 1 mM CaCl2 (JT Baker 1311-01); 2 mM MgCl2 (Sigma M-2670); 5 mM glucose (EM 4074-2); 0.3 mM NaH2PO4 (Sigma S-9638)/12 mM NaHCO3 (JT Baker 3506-01); 5 mM HEPES pH 7.4 (Gibco 12379-012); 0.35% BSA (Sigma A-7906); 330 mg Heparin (bovine lung, Sigma H-4898); and 30 mL of ACD) by repeated gentle aspiration using disposable polypropylene sample pipettes.
Wash buffer (pH 6.5) was added to each tube to bring the volume to approximately 40 mL. Each tube was incubated for at least 15 minutes at 37° C.
The tubes were then centrifuged again for 15 minutes at 2300-2400 rpm to loosely pellet the platelets. The supernatant was decanted and discarded. The pellet was resuspended in 2-4 mL of Assay buffer (pH 7.4) (1 L volume—134 mM NaCl; 3 mM KCl; 1 mM CaCl2; 2 mM MgCl2; 5 mM glucose; 0.3 mM NaH2PO4/12 mM NaHCO3; 5 mM HEPES pH 7.4; and 0.35% BSA) by repeated aspiration using disposable polypropylene sample pipettes.
The pooled platelet preparation was counted using a Coulter Counter. […]

Where [1] appears, read: washed human platelet membranes, competition with [33P]2MeS-ADP.

Chain of P2Y12 receptor (Q9H244 whole entry): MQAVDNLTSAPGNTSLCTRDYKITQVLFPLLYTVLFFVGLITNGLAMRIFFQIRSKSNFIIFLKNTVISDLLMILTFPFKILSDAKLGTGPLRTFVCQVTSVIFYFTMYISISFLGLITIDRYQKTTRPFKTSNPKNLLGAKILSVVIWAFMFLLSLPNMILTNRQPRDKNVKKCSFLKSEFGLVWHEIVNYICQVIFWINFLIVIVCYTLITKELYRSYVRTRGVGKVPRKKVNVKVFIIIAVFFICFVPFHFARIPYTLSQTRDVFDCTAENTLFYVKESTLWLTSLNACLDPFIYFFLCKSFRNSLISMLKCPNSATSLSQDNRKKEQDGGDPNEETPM

For `CCc1cc2c(N3CCN(C(=O)Cc4ccccc4)CC3)nc(SCc3ccco3)nc2s1` [Example 86, 6-ethyl-2-[(2-furylmethyl)thio]-4-[4-(phenylacetyl)piperazin-1-yl]thieno[2,3-d]pyrimidine], 10 µM produced 52.9% inhibition. Under setting [1], this compound gave an IC50 of 7.93 µM and a Ki of 7.51 µM.
Compound `CCc1cc2c(N3CCN(C(=O)Cc4ccccc4)CC3)nc(SCc3ccccc3)nc2s1` [Example 85, 2-(benzylthio)-6-ethyl-4-[4-(phenylacetyl)piperazin-1-yl]thieno[2,3-d]pyrimidine] came in with an inhibition at 10 µM of 39.5%. Also, the IC50 under setting [1] was more than 10 µM.
